Experiments:
Xenopus embryos = experiment: MO specificity, Western blotting of protein synthesis from co-injected mRNA; format: in vivo, Xenopus laevis; details: stage 10
Experimental: (§1) mRNA and Morpholino injection. For animal cap assays, indicated mRNAs (Tmem79, 100 and 200 pg; Xwnt8, 10 pg; β-catenin 50 pg; Xnr1, 250 pg; BMP4, 100 pg) were injected into the animal pole at 4-cell stage, and animal caps were dissected at stage 9 (in the case of Xwnt8, Xnr1, BMP4) or at stage 8.5 and treated with recombinant proteins (bFGF, 100 ng/ml; hShh, 1.5 ng/mL) until stage 10 before RT-PCR. For Neural induction assay the MO (20 ng) for Tmem79, Usp8 or β-catenin was injected into the animal pole at 4-cell stage, and animal caps were dissected at stage 9 and treated with recombinant protein Noggin (500 ng/mL) until stage 18 before RT-PCR. To examine Tmem79 and Usp8 MOs specificity, […] of mRNA of Xenopus Tmem79, mouse Tmem79, Xenopus Usp8 or xmutUsp8 (Xenopus Usp8 mutated for mismatches with the MO) were injected with a control MO, Tmem79 MO or Usp8 MO (20 ng) into the animal pole at the 2-cell stage and cultured til stage 10 for Western blotting. To knockdown the endogenous xTmem79 or xUsp8, 20 ng of control MO, Tmem79 MO or Usp8 MO were injected into two dorso-animal blastomeres at the 8-cell stage and the phenotype was scored at stage 35. To rescue the Tmem79 MO phenotype, […] of mTmem 79, 20 ng of Usp8 MO or 10 ng of β-catenin MO was injected together with Tmem79 MO (20 ng). RT-PCR primers and Morpholinos. […]

[1] = system: animal pole explants of Xenopus embryos; experiment: Neural induction assay by Noggin in animal pole explants (RT-PCR); design: species or system Xenopus laevis; details: co-injected with Tmem79MO
Experimental: as §1

For “Usp8 MO: morpholino against Xenopus Usp8, SEQ ID NO: 26 (antisense GCTGCAAATTCTCCTCTCTTATCAA; all phosphorodiamidate morpholino (PMO); listed as Xenopus laevis)”, the “protein synthesis from the Xenopus Usp8 (xUsp8) mRNA” value (Xenopus embryos) was “inhibited” and the “neural induction by Noggin abolished by Tmem79MO: effect of co-injection” value [1] was “rescued”.

Source: patent publication US12534762B2, “Treating atopic dermatitis by targeting the WNT pathway” (Children's Medical Center Corporation, priority 2018, dated 2026)
